Assays:
CDDP-GG DNA adducts = test: Immunofluorescence microscopy for the detection of CDDP-GG DNA adducts; assay type: cell-based, human; details: A549 cells, 25 μM CDDP alone or combined with PN
Protocol: Immunofluorescence staining and measurement of specific DNA platination products was performed essentially as previously described {Dzagnidze, 2007; Liedert, 2006}, with minor modifications. Briefly, cells were spotted onto ImmunoSelect adhesion slides (Squarix GmbH, Marl, Germany), fixed overnight in ice-cold methanol, and subjected to proteolytic digestion with 60 μg/mL pepsin (100 μL per spot, 10 min, 37° C., in a moist chamber) and 40 μg/mL proteinase K (100 μL per spot, 10 min, 37° C., in a moist chamber). Upon blockage of unspecific binding sites with 5% (w/v) non-fat powdered milk in PBS, slides were incubated with a rat primary antibody that specifically recognizes CDDP-GG DNA adducts (RC-18) (at 37° C. for 2 h or at 4° C. overnight). […] Images were acquired on an Axioplan fluorescence microscope (Carl Zeiss GmbH, Göttingen, Germany) coupled to a C4880 CCD camera (Hamamatsu Photonics, Herrsching, Germany). For the detection of CDDP-GG DNA adducts by immunofluorescence microscopy, fluorescence signals were measured by quantitative digital image analysis with the ACAS 6.0 Cytometry Analysis System (ACAS II, Asbach, Germany). The levels of adducts in each sample were calculated as arbitrary fluorescence units (AFUs), upon normalization of integrated antibody-derived fluorescence from 200 nuclei/sample to the corresponding DNA content. […]

[1] = test system: murine Lewis lung carcinoma (LLC) cells in immunocompetent C57BL/6 mice; test: Tumor graft model: LLC cells in C57BL/6 mice; assay type: in vivo, mouse; details: intraperitoneal CDDP with systemic injections of PN
Protocol: C57BL/6 (H-2b) and Swiss Nude mice were obtained from Janvier (Le Genest St. Isle, France) and Charles River, respectively. Animals were maintained in pathogen-free conditions, and all experiments were carried out (upon approval by the local ethical committee) according to the Federation of European Laboratory Animal Science Association (FELASA) guidelines. Mice were used between 6 and 12 weeks of age. During the experiments, animals were subjected to artificial light cycle (12 h lights on-12 h lights off) and allowed food and drink ad libitum.
5×10^5 LLC and A549 cells were subcutaneously xenografted (in 100 μL sterile PBS) in 25-30 immunocompetent (C57BL/6) and immunodeficient (Swiss Nude) mice, respectively. When the surface of tumors reached 25-40 mm^2, n=4-6 mice were assigned to either of 4 different treatment groups: group 1=100 μL intraperitoneal PBS; group 2=5 mg/kg intraperitoneal CDDP in 100 μL PBS; group 3=240 mg/Kg intraperitoneal Orlistat® in 40 μL PBS; group 4=5 mg/kg intraperitoneal CDDP in 100 μL PBS+intraperitoneal Orlistat® in 40 μL PBS. Treatments were administered three times a week (day 1, 3 and 5; day 8=day 1). Tumor size was monitored on the day of treatment by means of a standard calliper and tumor volume was extrapolated as previously described {Streit, 1999}. […] Statistical significance was evaluated by two-way ANOVA.

A549 cells [2] = test: Real-time measurements of cell adherence (impedance); assay type: cell-based, human; details: 50 μM CDDP alone or with 5 mM PN
Protocol: 5×10^3 A549 cells were seeded in standard culture conditions on 96-well plates coated with gold microelectrodes (E-plates™, Roche) and let adapt and recover growth for 40 h. Thereafter, cells were treated with 50 μM CDDP alone or in association with 5 mM PN for additional 48 h. Since plating, the adherence of cells to the plate was monitored every 15 min (as a function of plate impedance) by means of an xCELLigence™ Real-Time Cell Analyzer (RTCA, from Roche).
Cell adherence was measured in 3 parallel wells for each experimental condition.
Results are reported as mean cell index (CI) values, which constitute an indication of electrode impedance, ±SEM.

A549 cells [3] = test: Cell cycle distribution (PI staining, cytofluorometry); assay type: cell-based, human; details: 10 μM CDDP alone or with PN and/or NAC
Protocol: To measure apoptosis-related parameters, living cells were labeled for 30 min at +37° C. with 40 nM 3,3′dihexyloxalocarbocyanine iodide (DiOC6(3), from Molecular Probes-Invitrogen, Eugene, USA), which quantifies the mitochondrial transmembrane potential (Δψm), plus 1 μg/mL propidium iodide (PI), which only accumulates in cells with ruptured plasma membrane {Galluzzi, 2009; Galluzzi, 2008; Galluzzi, 2007}. To assess cell cycle distribution, cells were collected, fixed by gentle vortexing in ice-cold 80% (v/v) ethanol (Carlo Erba Reagents, Milano, Italy) and stained with 50 μg/mL PI in 0.1% (w/v) D-glucose in PBS supplemented with 1 μg/mL (w/v) RNAse A {Mondragon, 2009; Mouhamad, 2007}. All cytofluorometric determinations were carried out a FACSCalibur or a FACScan cytofluorometer (BD Biosciences, San Jose, USA) equipped with a 70 μm nozzle.
First line statistical analysis of cytofluorometric results was performed by using the CellQuest™ software (BD Biosciences), by gating on the events characterized by normal forward scatter and side scatter parameters. Apoptosis- and cell cycle-related data were further analyzed with Microsoft Excel (Microsoft Co., Redmond, USA) and statistical significance was assessed by means of two-tailed Student's t test (p<0.05).

Cc1ncc(CO)c(CO)c1O [PN, pyridoxine]
CDDP-DNA adducts (CDDP-GG DNA adducts): significantly increased CDDP-DNA adducts | antitumor effects of CDDP-based chemotherapy (tumor growth) [1]: augmented the antitumor effects of CDDP-based chemotherapy in vivo | CDDP-induced cell death measured as impedance caused by attached, viable cells (A549 cells [2]): exacerbated CDDP-induced cell death | cell cycle arrest induced by CDDP (A549 cells [3]): not affected by the presence of PN
